Measured values from patent publication US20250263404A1, “AMINOPYRIDINES AS ACTIVATORS OF PI3 KINASE” (UCL Business Ltd, priority 2021, published 2025).

Experiments:
[1] = test system: PIP3 production in A549 cells; experiment: TIRF microscopy of PIP3 reporter in A549 cells; assay type: cell-based, human
From the text: Class I PI3Ks convert the PtdIns(4,5)P2 lipid in the plasma membrane to PtdIns(3,4,5)P3 (or PIP3) which is converted to PtdIns(3,4)P2 by the action of 5-phosphatases. The inventors therefore tested whether stimulation of cells with 1938 led to the generation of PIP3 and PI(3,4)P2 using live imaging in cells expressing fluorescent biosensors that selectively bind these lipids. […] This PIP3 peak was followed by the generation of membrane-associated PI(3,4)P2 (FIG. 3aiii), with a timing in line with the known mechanism of cellular generation of PI(3,4)P2 from PIP3 by the action of 5-phosphatases. Similar kinetics of PIP3 and PI(3,4)P2 production have previously been reported in HeLa cells stimulated with insulin. […]
Image analyses of total reporter intensities were performed with the Fiji open source image analysis package. The region of interest (ROI) corresponding to the footprint of the individual cell across time points were defined using minimal intensity projection to select only pixels present across all time points, following prior subtraction of camera noise (rolling ball method, radius=500 pixels) and xy drift correction, intensity levels over time were measured. […] All other quantifications were performed using the open source software R/RStudio. […]

isolated rat hearts = experiment: Langendorff ex vivo perfused rat heart model of IRI; settings: 5 μM
PI3Kα = PI3Kα (Homo sapiens, UniProt P42336); experiment: FRET membrane binding assay, PI3Kα; assay type: biochemical; set-up: Full-length p110α was expressed in a complex with full-length p85α (for biochemistry and HDX-MS); 6xHis followed by TEV protease site (N); made in house; host or cells: Spodoptera frugiperda Sf9 (baculovirus co-infection; plasmids OP831 and OP809); settings: compared with pY
Sequence of PI3Kα (P42336 whole entry): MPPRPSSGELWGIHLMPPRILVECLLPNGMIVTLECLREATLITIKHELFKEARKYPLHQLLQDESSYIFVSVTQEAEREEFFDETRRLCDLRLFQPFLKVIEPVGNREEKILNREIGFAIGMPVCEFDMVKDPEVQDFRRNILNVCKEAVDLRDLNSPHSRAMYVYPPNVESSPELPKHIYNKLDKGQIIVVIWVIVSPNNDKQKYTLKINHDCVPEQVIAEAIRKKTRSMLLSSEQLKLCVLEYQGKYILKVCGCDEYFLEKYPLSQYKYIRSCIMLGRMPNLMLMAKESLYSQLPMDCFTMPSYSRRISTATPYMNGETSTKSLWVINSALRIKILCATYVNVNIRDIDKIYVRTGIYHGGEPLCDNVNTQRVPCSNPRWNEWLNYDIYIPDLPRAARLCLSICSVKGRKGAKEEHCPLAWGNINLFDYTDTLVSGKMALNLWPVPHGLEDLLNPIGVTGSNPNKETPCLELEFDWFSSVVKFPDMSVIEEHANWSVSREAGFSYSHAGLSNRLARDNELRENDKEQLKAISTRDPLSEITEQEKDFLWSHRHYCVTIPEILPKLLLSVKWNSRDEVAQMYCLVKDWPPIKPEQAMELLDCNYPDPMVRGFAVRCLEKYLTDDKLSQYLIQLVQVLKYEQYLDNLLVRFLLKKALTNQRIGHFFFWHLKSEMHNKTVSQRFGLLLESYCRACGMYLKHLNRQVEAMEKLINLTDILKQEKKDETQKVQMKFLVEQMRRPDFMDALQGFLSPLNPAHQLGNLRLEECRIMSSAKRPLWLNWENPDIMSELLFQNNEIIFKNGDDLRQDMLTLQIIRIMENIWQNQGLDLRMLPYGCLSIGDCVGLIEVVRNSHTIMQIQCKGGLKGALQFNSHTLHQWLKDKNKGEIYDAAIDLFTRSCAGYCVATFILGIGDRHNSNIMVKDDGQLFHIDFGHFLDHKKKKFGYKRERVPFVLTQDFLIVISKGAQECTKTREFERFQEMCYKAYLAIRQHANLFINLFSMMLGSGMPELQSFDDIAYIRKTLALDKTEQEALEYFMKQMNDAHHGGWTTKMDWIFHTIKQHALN
Sequence of PI3Kα (P27986 whole entry partner): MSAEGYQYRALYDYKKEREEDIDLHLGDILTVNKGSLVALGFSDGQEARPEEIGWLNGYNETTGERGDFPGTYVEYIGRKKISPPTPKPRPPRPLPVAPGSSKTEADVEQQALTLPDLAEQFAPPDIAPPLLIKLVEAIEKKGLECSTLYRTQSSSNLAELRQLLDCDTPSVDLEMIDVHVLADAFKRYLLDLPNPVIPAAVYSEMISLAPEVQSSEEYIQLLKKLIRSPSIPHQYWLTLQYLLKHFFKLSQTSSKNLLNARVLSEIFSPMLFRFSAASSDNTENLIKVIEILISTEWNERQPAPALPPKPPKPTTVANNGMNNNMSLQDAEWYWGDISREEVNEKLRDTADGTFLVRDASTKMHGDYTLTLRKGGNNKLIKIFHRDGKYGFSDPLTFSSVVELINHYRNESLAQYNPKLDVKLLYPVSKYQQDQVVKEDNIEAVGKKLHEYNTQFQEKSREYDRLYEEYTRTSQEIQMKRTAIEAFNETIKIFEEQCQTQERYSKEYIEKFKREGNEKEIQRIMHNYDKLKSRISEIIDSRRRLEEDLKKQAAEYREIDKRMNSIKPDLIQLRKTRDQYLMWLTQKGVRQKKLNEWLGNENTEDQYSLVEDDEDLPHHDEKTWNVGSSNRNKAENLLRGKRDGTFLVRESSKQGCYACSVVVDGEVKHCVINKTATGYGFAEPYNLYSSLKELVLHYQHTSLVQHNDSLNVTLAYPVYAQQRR
Procedure: Membrane binding assays were performed as previously published (Burke, J. E. et al. Proc Natl Acad Sci USA 109, 15259-15264 (2012)). Briefly, liposomes were prepared with 5% (w/v) brain PtdIns(4,5)P2, 20% brain phosphatidylserine, 35% brain phosphatidylethanolamine, 15% brain phosphatidylcholine, 10% cholesterol, 5% sphingomyelin, and 10% dansyl-phosphatidylserine (Avanti Polar Lipids). PI3Kα was used at a final concentration of 0.5 μM. Protein solutions were preincubated with 10 μM pY or compounds for 10 min before addition of liposomes. Liposomes were used at a final concentration of 50 μg/ml. The reaction mixture contained 5 μl enzyme, 2 μl compound and 3 μl liposomes, all diluted in 30 mM HEPES, 50 mM NaCl, pH 7.4. The reaction was allowed to proceed for 10 min at room temperature in 384 black-polystyrene plates (Corning #3544) on an orbital shaker at 200 rpm. FRET signals were measured using PHERAStar (BMG) with a 280 nm excitation filter with 350 nm and 520 nm emission filters to measure Dansyl-PS FRET emissions, respectively. FRET signal shown as I-I0, where I is the intensity at 520 nm, and 10 is the intensity at 520 nm for the solution in the absence of protein.

Structure (SMILES): CCN1CCN(c2ccc(Nc3cc(Nc4cccc5c4N(C(C)=O)CC5)ccn3)cc2)CC1 [Example 1938]
- PIP3 signal in PIK3CA-null A549 cells ([1]; PIK3CA-null A549 cells): did not increase
- time to plasma membrane-associated PIP3 production ([1]; serum-starved A549 cells): less than 3 min
- pAKT S473 in perfused rat hearts (isolated rat hearts): increase in generation of pAKTS473
- tissue protection from IRI (isolated rat hearts; administration during first 15 min of reperfusion): substantial tissue protection from IRI
- binding of PI3Kα to lipid membranes, maximum level (PI3Kα): about half of that induced by pY
